# Results as given in ChEMBL document CHEMBL1135234, “2-Arylindoles as gonadotropin releasing hormone (GnRH) antagonists: optimization of the tryptamine side chain” (Bioorg Med Chem Lett, 2002).
# Several values for one entry are separate records, joined by “and”; a condition that tells them apart may be missing. Equal entries are not always repeated.
# Columns and labels:
# [1] = target: T1, Gonadotropin-releasing hormone receptor (Homo sapiens, UniProt P30968); test: Inhibition of gonadotropin-releasing hormone receptor-stimulated [3H]inositol phosphate hydrolysis; format: functional
# T1 sequence (P30968 whole entry): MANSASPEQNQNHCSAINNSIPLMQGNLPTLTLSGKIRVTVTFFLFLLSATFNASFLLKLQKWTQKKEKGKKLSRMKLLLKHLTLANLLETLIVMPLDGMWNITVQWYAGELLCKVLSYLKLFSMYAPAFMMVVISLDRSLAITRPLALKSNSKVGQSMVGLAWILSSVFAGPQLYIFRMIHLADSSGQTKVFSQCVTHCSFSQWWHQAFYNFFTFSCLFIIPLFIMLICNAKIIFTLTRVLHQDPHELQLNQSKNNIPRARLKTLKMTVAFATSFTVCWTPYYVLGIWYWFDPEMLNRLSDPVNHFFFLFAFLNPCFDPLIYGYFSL
# [2] = target: T1, Gonadotropin-releasing hormone receptor; test: Inhibition of [125I]buserelin binding to human pituitary gonadotropin-releasing hormone receptor
# Cytochrome P450 3A4 [3] = target: T2, Cytochrome P450 3A4 (Homo sapiens, UniProt P08684); test: Inhibition of cytochrome P450 3A4 enzyme
# T2 sequence (P08684 whole entry): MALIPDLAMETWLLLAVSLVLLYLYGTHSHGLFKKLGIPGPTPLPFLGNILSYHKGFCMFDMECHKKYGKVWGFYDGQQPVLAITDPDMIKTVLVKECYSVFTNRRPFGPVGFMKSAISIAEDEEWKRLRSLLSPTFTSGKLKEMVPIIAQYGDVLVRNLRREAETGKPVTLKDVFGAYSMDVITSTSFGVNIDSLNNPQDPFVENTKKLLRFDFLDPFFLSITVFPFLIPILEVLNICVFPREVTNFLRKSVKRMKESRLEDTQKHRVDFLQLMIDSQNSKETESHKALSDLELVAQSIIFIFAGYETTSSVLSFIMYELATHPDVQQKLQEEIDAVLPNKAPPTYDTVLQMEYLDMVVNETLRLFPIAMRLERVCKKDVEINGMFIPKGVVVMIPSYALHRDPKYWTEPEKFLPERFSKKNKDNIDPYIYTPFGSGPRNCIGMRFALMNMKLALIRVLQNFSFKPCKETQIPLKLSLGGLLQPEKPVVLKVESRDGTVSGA
# Cytochrome P450 3A4 [4] = target: T2, Cytochrome P450 3A4; test: Inhibition of cytochrome P450 3A4 enzyme; Range 1-2 uM; format: ADME
# [5] = target: T1, Gonadotropin-releasing hormone receptor; test: Compound was evaluated for the inhibition of Gonadotropin-releasing hormone receptor-stimulated [3H]inositol phosphate hydrolysis using functional assay
# [6] = (§1) Oral bioavailability in dog; format: ADME, organism-based, Canis lupus familiaris; details: in vivo
# [7] = Plasma clearance in dog was determined; format: ADME, organism-based, Canis lupus familiaris; details: read-out: Clp
# [8] = Half life in dog was determined; format: ADME, organism-based, Canis lupus familiaris; details: in vivo
# Canis familiaris [9] = test: Compound was tested for the oral bioavailability in dog; No availability; format: ADME, organism-based, Canis lupus familiaris; details: in vivo
# Canis familiaris [10] = test: as §1; format: ADME, organism-based, Canis lupus familiaris; details: in vivo
Structure (SMILES),IC50 [1],IC50 [2],further results
Cc1cc(C)cc(-c2[nH]c3ccc(C(C)(C)C(=O)N4C5CCC4CC5)cc3c2[C@H](C)CNCCCCc2cncc3ccccc23)c1,10.2 nM,2.1 nM,–
Cc1cc(C)cc(-c2[nH]c3ccc(C(C)(C)C(=O)N4C5CCC4CC5)cc3c2[C@H](C)CNCc2cccc3ncccc23)c1 (stereo in doubt; 27b),315 nM,15.3 nM,–
Cc1cc(C)cc(-c2[nH]c3ccc(C(C)(C)C(=O)N4C5CCC4CC5)cc3c2[C@H](C)CNCCCCc2cccc3ncccc23)c1,46.4 nM,1.9 nM,–
Cc1cc(C)cc(-c2[nH]c3ccc(C(C)(C)C(=O)N4CC5CCC4CC5)cc3c2[C@H](C)CNCCc2ccc3[nH]ncc3c2)c1,1.5 nM,1.1 nM,–
Cc1cc(C)cc(-c2[nH]c3ccc(C(C)(C)C(=O)N4C5CCC4CC5)cc3c2[C@H](C)CNCCCCc2cccc3cnccc23)c1,6.8 nM,1.5 nM,clearance [7]: 49.2 mL/min/kg; half-life [8]: 1 h; bioavailability [6]: 4%
Cc1cc(C)cc(-c2[nH]c3ccc(C(C)(C)C(=O)N4C5CCC4CC5)cc3c2[C@H](C)CNCCCc2cccc3ncccc23)c1,131 nM,2.4 nM,–
Cc1cc(C)cc(-c2[nH]c3ccc(C(C)(C)C(=O)N4CC5CCC4CC5)cc3c2[C@H](C)CNCCc2ccc3[nH]c(C(F)(F)F)nc3c2)c1,101 nM,0.9 nM,IC50 (Cytochrome P450 3A4 [3]): > 10000 nM
Cc1cc(C)cc(-c2[nH]c3ccc(C(C)(C)C(=O)N4C5CCC4CC5)cc3c2[C@H](C)CNCCCc2cccc3cnccc23)c1,5 nM,0.9 nM,–
Cc1cc(C)cc(-c2[nH]c3ccc(C(C)(C)C(=O)N4CC5CCC4CC5)cc3c2[C@H](C)CNCc2ccc3nc[nH]c3c2)c1,43.9 nM,16.5 nM,–
Cc1cc(C)cc(-c2[nH]c3ccc(C(C)(C)C(=O)N4C5CCC4CC5)cc3c2[C@H](C)CNCCCc2ccnc3nc(C)ccc23)c1,16.2 nM,1.1 nM,–
Cc1cc(C)cc(-c2[nH]c3ccc(C(C)(C)C(=O)N4C5CCC4CC5)cc3c2[C@H](C)CNCc2cccc3ncccc23)c1 (stereo in doubt; 27a),420 nM,27.5 nM,–
Cc1cc(C)cc(-c2[nH]c3ccc(C(C)(C)C(=O)N4C5CCC4CC5)cc3c2[C@H](C)CNCCCCc2ccc3cnccc3c2)c1,5.8 nM,3.6 nM,–
Cc1cc(C)cc(-c2[nH]c3ccc(C(C)(C)C(=O)N4C5CCC4CC5)cc3c2[C@H](C)CNCCCc2ccc3ncccc3c2)c1,17.8 nM,3 nM,–
Cc1cc(C)cc(-c2[nH]c3ccc(C(C)(C)C(=O)N4C5CCC4CC5)cc3c2[C@H](C)CNCCCCc2ccc3ncccc3c2)c1,11.5 nM,1.1 nM,–
Cc1cc(C)cc(-c2[nH]c3ccc(C(C)(C)C(=O)N4C5CCC4CC5)cc3c2[C@H](C)CNCCCCc2ccncc2)c1,–,–,clearance [7]: 26.5 mL/min/kg; half-life [8]: 9.5 h; F (Canis familiaris [10]): 23% and 11%
Cc1cc(C)cc(-c2[nH]c3ccc(C(C)(C)C(=O)N4C5CCC4CC5)cc3c2[C@H](C)CNCCCc2cncc3ccccc23)c1,7.5 nM,2.1 nM,–

# The next lines start with results.
IC50 [1],IC50 [2],Structure (SMILES),further results
9 nM,0.3 nM,Cc1cc(C)cc(-c2[nH]c3ccc(C(C)(C)C(=O)N4C5CCC4CC5)cc3c2[C@H](C)CNCCc2ccc3ocnc3c2)c1,–
13 nM,0.4 nM,Cc1cc(C)cc(-c2[nH]c3ccc(C(C)(C)C(=O)N4C5CCC4CC5)cc3c2[C@H](C)CNCCc2ccc3[nH]c(C)nc3c2)c1,IC50 (Cytochrome P450 3A4 [3]): 5000 nM
4.6 nM,0.4 nM,Cc1cc(C)cc(-c2[nH]c3ccc(C(C)(C)C(=O)N4C5CCC4CC5)cc3c2[C@H](C)CNCCCCc2cnc3nc[nH]c3c2)c1,–
2 nM,0.4 nM,Cc1cc(C)cc(-c2[nH]c3ccc(C(C)(C)C(=O)N4C5CCC4CC5)cc3c2[C@H](C)CNCCc2ccc3ncoc3c2)c1,IC50 (Cytochrome P450 3A4 [4]): 1000 nM
–,0.6 nM,Cc1cc(C)cc(-c2[nH]c3ccc(C(C)(C)C(=O)N4CC5CCC4CC5)cc3c2[C@H](C)CNCCc2ccc3[nH]c(=O)[nH]c3c2)c1,IC50 [5]: 2 nM; bioavailability [6]: 5%
10.9 nM,0.8 nM,Cc1cc(C)cc(-c2[nH]c3ccc(C(C)(C)C(=O)N4C5CCC4CC5)cc3c2[C@H](C)CNCCCc2cnc3nccnc3c2)c1,–
27.9 nM,0.7 nM,Cc1cc(C)cc(-c2[nH]c3ccc(C(C)(C)C(=O)N4CC5CCC4CC5)cc3c2[C@H](C)CNCCc2ccc3[nH]c(=O)[nH]c3c2F)c1,–
2.6 nM,0.4 nM,Cc1cc(C)cc(-c2[nH]c3ccc(C(C)(C)C(=O)N4C5CCC4CC5)cc3c2[C@H](C)CNCCc2ccc3nc[nH]c3c2)c1,–
4.5 nM,0.3 nM,Cc1cc(C)cc(-c2[nH]c3ccc(C(C)(C)C(=O)N4CC5CCC4CC5)cc3c2[C@H](C)CNCCc2ccc3nc[nH]c3c2)c1,IC50 (Cytochrome P450 3A4 [3]): 100 nM; bioavailability [6]: 63%
5 nM,0.7 nM,Cc1cc(C)cc(-c2[nH]c3ccc(C(C)(C)C(=O)N4CC5CCC4CC5)cc3c2[C@H](C)CNCCc2ccc3[nH]c(CO)nc3c2)c1,–
6.5 nM,0.4 nM,Cc1cc(C)cc(-c2[nH]c3ccc(C(C)(C)C(=O)N4CC5CCC4CC5)cc3c2[C@H](C)CNCCc2ccc3nc(C(=O)O)[nH]c3c2)c1,clearance [7]: 24.6 mL/min/kg; F (Canis familiaris [9]): Not Active
4.6 nM,0.7 nM,Cc1cc(C)cc(-c2[nH]c3ccc(C(C)(C)C(=O)N4C5CCC4CC5)cc3c2[C@H](C)CNCCCc2ccc3cnccc3c2)c1,–
2.5 nM,0.4 nM,Cc1cc(C)cc(-c2[nH]c3ccc(C(C)(C)C(=O)N4C5CCC4CC5)cc3c2[C@H](C)CNCCc2c[nH]c3ncnc-3c2)c1,–
2.5 nM,0.3 nM,Cc1cc(C)cc(-c2[nH]c3ccc(C(C)(C)C(=O)N4CC5CCC4CC5)cc3c2[C@H](C)CNCCc2ccc3nn[nH]c3c2)c1,clearance [7]: 5 mL/min/kg; half-life [8]: 7.2 h; bioavailability [6]: 20%
7.9 nM,0.4 nM,Cc1cc(C)cc(-c2[nH]c3ccc(C(C)(C)C(=O)N4C5CCC4CC5)cc3c2[C@H](C)CNCCCCc2cnc3nccnc3c2)c1,–
7.6 nM,0.3 nM,COC(=O)c1nc2ccc(CCNC[C@@H](C)c3c(-c4cc(C)cc(C)c4)[nH]c4ccc(C(C)(C)C(=O)N5CC6CCC5CC6)cc34)cc2[nH]1,–
34.7 nM,0.6 nM,Cc1cc(C)cc(-c2[nH]c3ccc(C(C)(C)C(=O)N4C5CCC4CC5)cc3c2[C@H](C)CNCCc2cccc3cnccc23)c1,clearance [7]: 5.8 mL/min/kg; half-life [8]: 1.9 h; IC50 (Cytochrome P450 3A4 [4]): 1000 nM; bioavailability [6]: 10%
11.4 nM,0.5 nM,Cc1cc(C)cc(-c2[nH]c3ccc(C(C)(C)C(=O)N4CC5CCC4CC5)cc3c2[C@H](C)CNCCc2ccc3nsnc3c2)c1,IC50 (Cytochrome P450 3A4 [4]): 1000 nM
2 nM,0.6 nM,Cc1cc(C)cc(-c2[nH]c3ccc(C(C)(C)C(=O)N4C5CCC4CC5)cc3c2[C@H](C)CNCCc2ccc3[nH]nnc3c2)c1,clearance [7]: 37 mL/min/kg; half-life [8]: 2.7 h; bioavailability [6]: 37%
4.5 nM,0.3 nM,Cc1cc(C)cc(-c2[nH]c3ccc(C(C)(C)C(=O)N4CC5CCC4CC5)cc3c2[C@H](C)CNCCc2c[nH]c3ncnc-3c2)c1,IC50 (Cytochrome P450 3A4 [3]): 4000 nM; bioavailability [6]: 16%
2.8 nM,0.6 nM,Cc1cc(C)cc(-c2[nH]c3ccc(C(C)(C)C(=O)N4CC5CCC4CC5)cc3c2[C@H](C)CNCCc2cnc3nn[nH]c3c2)c1,–
8.4 nM,0.6 nM,Cc1cc(C)cc(-c2[nH]c3ccc(C(C)(C)C(=O)N4C5CCC4CC5)cc3c2[C@H](C)CNCCCCc2ccnc3nc(C)ccc23)c1,–
3.9 nM,0.6 nM,Cc1cc(C)cc(-c2[nH]c3ccc(C(C)(C)C(=O)N4CC5CCC4CC5)cc3c2[C@H](C)CNCCc2ccc3ncoc3c2)c1,–
